Values joined by “and” are separate entries in the source; they are usually repeats but may differ in a detail not shown here. Equal values may be shown once.
Tests used:
Type in all cases: in vivo
[1] = tested on: wild-type C57BL6 mice fed a high fat diet; assay: High fat diet six weeks with OX once per day, body weight and NMR body composition (Example 11); conditions: HFD six weeks
Protocol: To confirm these findings and investigate the role for OX in energy metabolism and to prevent obesity, wild-type C57BL6 mice were fed a high fat diet (HFD) for six weeks. During this period, half of the mice received OX intraperitoneally once per day, while the other half was injected with saline. Food intake and body weight of both groups were monitored weekly. OX-treated mice ate more, resisted weight gain, were visibly lean, and accumulated less fat. […] Fat and lean mass were determined by subjecting mice to nuclear magnetic resonance (NMR) (Bruker, The Woodlands, Tex., United States) following a four-hour fast. OX therapy had no impact on either the lean mass or total fluid content. FIG. 27 illustrates these findings. Weekly energy intake, cumulative energy consumed, body weight gain over six weeks, and differences in body size between the two groups of mice are depicted.

[2] = tested on: WtB6 mice fed a high fat diet; assay: High fat diet six weeks with two weekly OX injections, obesity resistance (Example 12)
Description: To confirm that OX prevents obesity under conditions of caloric excess, a high fat diet (HFD) was fed to WtB6 mice for six weeks. Mice received two weekly OX or PBS injections (n=6/group). Food intake and body weight of both groups were monitored weekly. […] OX-injected animals, however, resisted weight gain, which became apparent during the second wk of therapy (FIG. 28B). At the conclusion of the treatment period, OX-treated mice were visibly lean (FIG. 28C, D) and weighed 7 g±1.2 g less than the control group (FIG. 28B, Table 3). […] Total visceral fat was reduced by more than 60%. Visceral fat in the OX-injected group was noticeably darker in color relative to control tissue (FIG. 28E, F).
Further, the respiratory quotient of OX-injected group was 10% lower than the vehicle injected group, indicating higher fat oxidation capacity (FIG. 28J). […] To determine whether systemic OX injection induces BAT activity, mice with OX (10 mg/kg) or PBS were compared, using relative UCP-1 expression as an indicator for BAT activity 24-hours post-injection.

obese wild type B6 mice = assay: Reversal of diet-induced obesity, OX twice weekly for 4 wks after 17 weeks HFD (Example 13)
Protocol: To confirm that systemic OX therapy induces weight loss in obese mice, wild type B6 mice were fed a HFD for 17 weeks and treated either with OX (10 mg/kg) or PBS vehicle twice weekly for 4 wks (n=6 mice/group). […] The OX-injected group began losing body weight from week 1. At the end of the 4-week treatment regimen, the OX-injected population appeared considerably leaner than the vehicle-injected controls, and the former had lost about 10 g body weight, as shown in FIG. 29A. […] Enhancement of energy expenditure was not due to any increase in physical activity (FIG. 29C).
To evaluate changes associated with weight loss, OX-treated and untreated mice were compared at autopsy. Untreated mice fed a high fat diet had developed fatty livers, which were visibly paler in color than those from OX-treated mice (FIG. 29E).

[3] = HFD six weeks, two weekly injections
[4] = end of 4-week treatment, OX 10 mg/kg twice weekly

## orexin-A (EPLPDCCRQKTCSCRLYELLHGAGNHAAGILTL) [OX, human orexin A, cat; No. 24470, Anaspec]
[1]; OX i.p. once per day
  abdominal obesity of control mice relative to OX-treated mice: 3.5 times
  body fat accumulated by control mice relative to OX-treated mice: twice as much body fat
  control mice heavier than OX-treated mice: approximately 35%
  impact on lean mass or total fluid content: no impact
[1]; NMR, n=4
  % body fat: 15 ± 1.1%
  Fat mass: 3.4 ± 0.4
  Fluid content: 7.7 ± 1.5
  Lean mass: 18.7 ± 1.1
  Lean mass-fat mass ratio: 5.5 ± 0.3
[2]; [3]
  % body fat: 15% and 15 ± 1.1%
  Fat mass: 3.4 ± 0.4
  Fluid content: 7.7 ± 1.5
  Lean mass: 18.7 ± 1.1
  Lean mass-fat mass ratio: 5.5 ± 0.3
[2]; OX 10 mg/kg, 24-hours post-injection
  iBAT UCP1 expression: higher UCP1 levels than controls
[2]; at the conclusion of the treatment period
  body weight less than the control group: 7 g
[2]; calorimetric measurements
  oxygen consumed, more than the control group: 15%
  respiratory quotient, lower than the vehicle injected group: 10%
[2]; end of the study
  reduction of total visceral fat: more than 60%
  reduction of whole body fat mass: 50%
[2]; infrared monitoring, two weeks
  physical activity: not more physically active
[2]; relative to control mice
  increase in twenty-four hour energy expenditure: 19%
[2]; versus vehicle
  cumulative food intake over the 6-week period: not significantly different
  food intake during the first week: ate significantly more
  lean mass or fluid content: not significantly different
Obese wild type B6 mice; 4 weeks treatment
  amount of visceral fat: considerably decreased
Obese wild type B6 mice; between groups
  food intake: did not differ significantly
  lean mass or fluid content: not significantly different
Obese wild type B6 mice; calorimetric studies
  energy expended, more than the control group: 17%
  oxygen consumed, more than the control group: 13%
Obese wild type B6 mice; end of 4-week treatment
  body weight lost: about 10 g
Obese wild type B6 mice; [4]
  % body fat: 27% and 27 ± 1.4%
  Fat mass: 7.9 ± 0.6
  Lean mass: 20.4 ± 1.3
  Lean mass fat mass ratio: 2.58 ± 0.2
Obese wild type B6 mice; end of 4-week treatment, OX 10 mg/kg twice weekly, in g (unit assumed)
  Body weight: 29.2 ± 0.8
Obese wild type B6 mice; end of the study
  reduction of whole body fat mass: 55%
Obese wild type B6 mice; high fat diet, at autopsy
  triglycerides within the liver: 91 ± 7 µmol/g
Obese wild type B6 mice; mitoTracker-stained iBAT sections, relative to controls
  iBAT mitochondrial content/activity: elevated mitochondrial content/activity
